Columns and labels:
[1] = target: T1, glucocorticoid receptor (GR) (Homo sapiens, UniProt P04150); assay: Assay for agonist activity on glucocorticoid receptor (luciferase reporter, HEK293 cells transfected with pBIND-GR plasmid); assay type: cell-based
T1 sequence (P04150 521-777): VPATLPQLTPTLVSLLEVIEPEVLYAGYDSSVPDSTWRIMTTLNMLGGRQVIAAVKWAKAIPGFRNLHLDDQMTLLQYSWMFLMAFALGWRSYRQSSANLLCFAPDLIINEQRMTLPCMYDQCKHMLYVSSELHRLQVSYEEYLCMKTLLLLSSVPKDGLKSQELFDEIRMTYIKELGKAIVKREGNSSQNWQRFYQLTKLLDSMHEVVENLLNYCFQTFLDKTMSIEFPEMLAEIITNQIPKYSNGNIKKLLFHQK
How it was run: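 HEK293 cells transfected with pBIND-GR, seeded in phenol red-free DMEM with 5% charcoal-stripped serum, then exposed to compounds in a 10-point, 4-fold dilution series from 10 µM, in duplicate. Luciferase luminescence read after incubation; EC50 from nonlinear fit. Vehicle blank: 0.1% DMSO.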

[2] = Stability in animal lung tissue homogenate, skin tissue homogenate and aqueous humor; assay type: in vitro ADME
[3] = tested on: inflammatory cytokines IL-6 and IL-12; assay: Anti-asthma pharmacodynamic experiment: inflammatory cytokines in bronchoalveolar lavage fluid (ELISA); assay type: in vivo, female BALB/c mice; conditions: compared with the model group
uveitis model rats = assay: Anti-uveitis pharmacodynamic experiment (LPS model): ocular pathological score; assay type: in vivo, male SD rats; conditions: for ocular abnormalities / ocular pathological score: compared with the model group
[4] = tested on: inflammatory cytokines (TNF-α); assay: Anti-uveitis pharmacodynamic experiment (LPS model): inflammatory cytokines in aqueous humor (ELISA); assay type: in vivo, male SD rats; conditions: values not given
Experimental: Pharmacological Example 5. Pharmacodynamic Experiment on Anti-Uveitis
Test samples: Compounds 23 and 26 were prepared as 5 mg/5 mL ophthalmic suspensions with reference to the formulation of Fluorometholone Eye Drops, and stored at room temperature protected from light until use.
Positive control drug: Fluorometholone Eye Drops (specification: 5 mL/5 mg; Santen Pharmaceutical (CHINA) Co., Ltd.; Lot No. : J20180068) was used as the positive control drug and stored at room temperature protected from light until use.
Fifty male SD rats underwent a one-week adaptive feeding period. The animals were randomly divided into 5 groups: Group 1 served as the blank control group, and Groups 2 to 5 were the model group, fluorometholone group, compound 23 group, and compound 26 group, respectively. Groups 2 to 5 were used to establish rat uveitis models by single subcutaneous injection of 1 mg/kg LPS (Salmonella; Sigma; Lot No. 0000164114) into the plantar tissue of the hindpaw. Salmonella endotoxin was dissolved in normal saline to prepare an injection solution at a concentration of 2 mg/mL, which was injected subcutaneously at 1 mg/kg into the plantar tissue of one paw of the rats. Group 1 was injected with an equal volume of normal saline.
After modeling, 40 µL of normal saline was administered to the eyes (bilateral) of the rats in the blank control group and model group, and 40 µL of the corresponding drugs were administered to the eyes (bilateral) of the […] in the compound 23 group, compound 26 group, and positive drug fluorometholone group, 3 times a day for 2 days. Table 8. Animal grouping and drug administration dosages
Thirty hours after modeling, aqueous humor was collected from both eyes of rats, and partial eyeball tissues of rats were collected. The level of the inflammatory cytokines (TNF-α) was detected using a rat ELISA assay kit.
Statistical analysis was performed using SPSS software. Measurement data were expressed as mean ± standard deviation. One-way ANOVA was used for intergroup comparisons. For data with homogeneous variance, LSD test was used; for data with heterogeneous variance, Dunnett-t test was used. A value of P < 0.05 was considered statistically significant.

[5] = tested on: dry eye syndrome model New Zealand rabbits; assay: Dry eye syndrome experiment (benzalkonium chloride model): tear film break-up time; assay type: in vivo, male New Zealand White rabbits; conditions: compared with the model group
[6] = tested on: dry eye syndrome model New Zealand rabbits; assay: Dry eye syndrome experiment (benzalkonium chloride model): corneal fluorescein sodium staining; assay type: in vivo, male New Zealand White rabbits; conditions: compared with the model group
IL-17 = assay: Psoriasis experiment (imiquimod model): inflammatory cytokine in serum (ELISA); assay type: in vivo, mice; conditions: compared with the model group
[7] = tested on: intraocular pressure of guinea pigs; assay: Adverse reactions of continuous ocular administration: intraocular pressure; assay type: in vivo
Experimental: Pharmacological Example 9: Experiment on Adverse Reactions of Continuous Ocular Administration in Guinea Pigs
Test samples: Compounds 17 and 23 were prepared as 5 mg/5 mL ophthalmic suspensions with reference to the formulation of Fluorometholone Eye Drops, and stored at room temperature protected from light until use.
Positive control drug: Fluorometholone Eye Drops (specification: 5 mL/5 mg; Santen Pharmaceutical (CHINA) Co., Ltd.; Lot No.: 1FM6545), Loteprednol Etabonate Eye Drops (specification 0.5% (5 mg/mL); Shandong Bausch & Lomb Freda Pharmaceutical Co., Ltd; Lot No. 386521), stored at room temperature protected from light until use.
Animals: 50 guinea pigs, conventional grade, with an equal number of males and females, weighing 300-350 g..
Animal grouping: After 5 days of adaptive feeding, the guinea pigs were randomly divided into 5 groups based on body weight. Group 1 was the blank control group, and 50 µL of normal saline was dropped into the eyes (bilateral) of the guinea pigs. Groups 2 to 5 were the fluorometholone group, loteprednol group, compound 17 group, and compound 23 group, respectively, and the corresponding drugs were dropped into the eyes (bilateral) of the guinea pigs. Table 19. Animal grouping and drug administration dosages for the experiment on adverse reactions of continuous ocular administration in guinea pigs
Intraocular pressure measurement time: The intraocular pressure of animals in each group was measured before administration and on days 7, 14, 21, and 28 post-administration.

[8] = GR agonist EC50 (nM), HEK293 cells transfected with pBIND-GR, luciferase signal

For `C[C@]12C=CC(=O)C=C1[C@@H](F)C[C@H]1[C@@H]3C[C@H]4OC(c5ccc(CSC6CCOC6=O)cc5)O[C@@]4(C(=O)SCC#N)[C@@]3(C)C[C@H](O)[C@@]12F` (stereo partly drawn) [Compound 35, S-(Cyanomethyl) (2S,6aS,6bR,7S,8aS,8bS,11aR,12aS,12bS)-2,6b-difluoro-7-hydroxy-6a,8a-dimethyl-4-oxo-10-(4-( ((2-oxotetrahydrofuran-3-yl)thio)methyl)phenyl)-1,2,4,6a,6b,7,8,8a,11a,12,12a,12b-dodecahydro-8bH-naphtho[2',1':4,5]indeno[1,2-d][1,3]dioxole-8b-carbothioate], the EC50 [1, 8] was 0.21 nM, the EC50 ([1]; Nuclear receptor enzyme activity (nM) GR, EC50 of agonist activity, HEK293 reporter cells) was 0.21 nM and the “stability in animal lung tissue homogenate, skin tissue homogenate, and aqueous humor” value (“stability” below) [2] was “relatively stable”. For the same molecule, the “Effects on inflammatory cytokines in bronchoalveolar lavage fluid of mice” value (“Effects on inflammatory cytokines” for short) [3] was “pharmacological effects similar to those of compound 23”, the “ocular abnormalities / ocular pathological score” value (uveitis model rats) was “significantly improved ocular abnormalities” and the “inflammatory cytokines in aqueous humor” value [4] was “suppressed inflammatory cytokines in aqueous humor”. The “tear film break-up time” value [5] was “significantly increased the tear film break-up time”, the “inflammatory response on the ocular surface / ocular symptoms” value [6] was “significantly alleviated the ocular symptoms in dry eye syndrome model New Zealand rabbits” and the “level of IL-17 / inflammatory cytokines in psoriasis model mice” value (from here on “level of IL-17 / inflammatory cytokines”) (IL-17) was “significantly inhibited inflammatory cytokines in the skin of psoriasis model mice”. The “intraocular pressure after continuous ocular administration” value (“intraocular pressure” below) [7] was “no abnormal intraocular pressure observed”.

With `C[C@]12C=CC(=O)C=C1CC[C@H]1[C@@H]3C[C@H]4OC(c5ccc(CSC6COC(=O)C6)cc5)O[C@@]4(C(=O)CO)[C@@]3(C)C[C@H](O)[C@@]12Cl` (stereo partly drawn) [Compound 26, (6aS,6bR,7S,8aS,8bS,11aR,12aS,12bS)-6b-Chloro-7-hydroxy-8b-(2-hydroxyacetyl)-6a,8a-dimethyl-10-(4-(((5-oxotetrahydrofuran-3-yl)thio)methyl)phenyl)-1,2,6a,6b,7,8,8a,8b,11a,12,12a,12b-do decahydro-4H-naphtho[2',1':4,5]indeno[1,2-d][1,3]dioxol-4-one] the EC50 [1, 8] was 0.37 nM, the “stability” value [2] was “relatively stable” and the “Effects on inflammatory cytokines” value [3] was “pharmacological effects similar to those of compound 23”. For the same molecule, the Ocular pathological score (uveitis model rats; 1 mg/mL, 40 µL/eye, 3 times a day for 2 days) was 7.6 ± 0.5, the “ocular abnormalities / ocular pathological score” value (uveitis model rats) was “significantly improved the ocular abnormalities and reduced the ocular pathological score” and the “inflammatory cytokines in aqueous humor” value [4] was “suppressed inflammatory cytokines in aqueous humor”. For the same molecule, the “tear film break-up time” value [5] was “significantly increased the tear film break-up time”, the “inflammatory response on the ocular surface / ocular symptoms” value [6] was “significantly alleviated the ocular symptoms in dry eye syndrome model New Zealand rabbits” and the “level of IL-17 / inflammatory cytokines” value (IL-17) was “significantly inhibited inflammatory cytokines in the skin of psoriasis model mice”. The “intraocular pressure” value [7] was “no abnormal intraocular pressure observed”.

In the case of `C[C@]12C=CC(=O)C=C1[C@@H](F)C[C@H]1[C@@H]3C[C@H]4OC(c5ccc(CSC6CCOC6=O)cc5)O[C@@]4(C(=O)OCC#N)[C@@]3(C)C[C@H](O)[C@@]12F` (stereo partly drawn) [Compound 37, Cyanomethyl (2S,6aS,6bR,7S,8aS,8bS,11aR,12aS,12bS)-2,6b-difluoro-7-hydroxy-6a,8a-dimethyl-4-oxo-10-(4-( ((2-oxotetrahydrofuran-3-yl)thio)methyl)phenyl)-1,2,4,6a,6b,7,8,8a,11a,12,12a,12b-dodecahydro-8bH-naphtho[2',1':4,5]indeno[1,2-d][1,3]dioxole-8b-carboxylate], the EC50 [1, 8] is reported as 0.78 nM, the “stability” value [2] is reported as “relatively stable” and the “Effects on inflammatory cytokines” value [3] is reported as “pharmacological effects similar to those of compound 23”. For the same molecule, the “ocular abnormalities / ocular pathological score” value (uveitis model rats) was “significantly improved ocular abnormalities”, the “inflammatory cytokines in aqueous humor” value [4] was “suppressed inflammatory cytokines in aqueous humor” and the “tear film break-up time” value [5] was “significantly increased the tear film break-up time”. The “inflammatory response on the ocular surface / ocular symptoms” value [6] was “significantly alleviated the ocular symptoms in dry eye syndrome model New Zealand rabbits”, the “level of IL-17 / inflammatory cytokines” value (IL-17) was “significantly inhibited inflammatory cytokines in the skin of psoriasis model mice” and the “intraocular pressure” value [7] was “no abnormal intraocular pressure observed”.
